The target in series [1] is T1, PAR4 (Homo sapiens (Human), UniProt Q96RI0). The experiment in a line: FLIPR assay in PAR4-expressing HEK293 cells (PAR4 antagonist activity, calcium mobilization). The series is classed as cell-based. Conditions: H-Ala-Phe(4-F)-Pro-Gly-Trp-Leu-Val-Lys-Asn-Gly-NH2-induced calcium mobilization. The gist of the method:
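HEK293 EBNA cells stably expressing human PAR4 (also endogenous PAR1) preincubated 30 min at room temperature with compound in HBSS/10 mM HEPES, 0.67% DMSO final. PAR4 agonist peptide then added and intracellular calcium mobilization monitored by fluorescence.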

The target of series [2] is T1, PAR4. The series is described as follows: Gamma thrombin induced platelet aggregation assay (PRP assay). The class given is cell-based. The conditions noted are these: human platelet rich plasma, 96-well microplate. The protocol: Platelet aggregation can be monitored in a 96-well microplate aggregation assay format or using standard platelet aggregometer.
The platelet rich plasma was isolated by centrifugation at 170 g for 14 minutes.
The ability of the compounds of the current invention to inhibit platelet aggregation induced by gamma-thrombin was tested in a 96-well microplate aggregation assay format. Briefly, PRP or washed platelet suspension (100 μl) was pre-incubated for 5 minutes at room temperature with varying concentrations of compounds. Aggregation was initiated by ˜10-50 nM gamma thrombin (Haematologic Technologies, Essex Junction, Vt.), which was titrated daily to achieve 80% platelet aggregation. Refludan at 1 U/mL (Berlex, Montville, N.J.) was added to the gamma thrombin sample to prevent PAR1 activation induced by residual alpha-thrombin contamination. The plate was then placed into a 37° C. Molecular Devices (Sunnyvale, Calif.) SPECTRAMAX® Plus Plate Reader. […] The plate also included an untreated control sample which served as ODmax, while buffer containing no platelets was the ODmin. Platelet aggregation was determined by subtracting the ODmax from the ODmin for the 100% aggregation value. In experimental samples, the observed transmission was subtracted from the minimum value and then compared to the 100% aggregation value to determine the percentage aggregation. IC50 values are determined using Excel Fit software.

The target of a further series is PAR1 (Homo sapiens (Human), UniProt P25116). The conditions noted are these: ACS patients, phase III; cited from earlier work.
Chain of PAR1 (P25116 22-425): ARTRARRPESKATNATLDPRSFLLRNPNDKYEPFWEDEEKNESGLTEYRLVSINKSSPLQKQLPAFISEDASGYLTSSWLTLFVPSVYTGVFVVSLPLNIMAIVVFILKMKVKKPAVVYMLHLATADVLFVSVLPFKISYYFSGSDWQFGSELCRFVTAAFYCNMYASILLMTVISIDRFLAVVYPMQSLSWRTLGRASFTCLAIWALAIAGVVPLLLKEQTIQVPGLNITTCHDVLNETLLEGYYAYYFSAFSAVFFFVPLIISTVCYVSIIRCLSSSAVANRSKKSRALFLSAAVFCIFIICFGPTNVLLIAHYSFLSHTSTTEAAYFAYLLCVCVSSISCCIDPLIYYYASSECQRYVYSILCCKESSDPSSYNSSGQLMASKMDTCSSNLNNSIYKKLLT

T1 sequence (Q96RI0 18-385): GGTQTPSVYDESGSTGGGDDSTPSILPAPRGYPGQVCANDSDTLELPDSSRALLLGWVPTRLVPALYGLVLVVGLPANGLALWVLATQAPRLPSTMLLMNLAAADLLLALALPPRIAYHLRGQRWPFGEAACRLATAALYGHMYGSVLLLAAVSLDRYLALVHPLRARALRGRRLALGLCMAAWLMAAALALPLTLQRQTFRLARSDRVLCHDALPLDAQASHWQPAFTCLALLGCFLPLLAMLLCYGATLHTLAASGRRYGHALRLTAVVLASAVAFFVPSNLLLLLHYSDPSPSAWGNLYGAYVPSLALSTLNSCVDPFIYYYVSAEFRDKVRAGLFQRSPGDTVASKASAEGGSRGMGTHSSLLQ

Broadly, the EC50 is the concentration that produces a half-maximal response. By IC50 is commonly meant the midpoint of a concentration-inhibition curve. For the compound `COc1cc(OCc2csc(C3(O)CCC(C(=O)N(C)CC#N)CC3)n2)c2cc(-c3cn4nc(OC)sc4n3)oc2c1` (stereo not drawn) [Example 152, N-(Cyanomethyl)-4-hydroxy-4-(4-(((6-methoxy-2-(2-methoxyimidazo[2,1-b][1,3,4]thiadiazol-6-yl)benzofuran-4-yl)oxy)methyl)thiazol-2-yl)-N-methylcyclohexanecarboxamide], at PAR4 [1], the concentration giving a half-maximal response (EC50) was 0.68 nM. The compound further had an IC50 at PAR4 [2] of 28 nM.
For the compound `COc1cc(OCc2csc(C3(c4ccc(C(=O)N(C)C)cc4)CCOCC3)n2)c2cc(-c3cn4nc(OC)sc4n3)oc2c1` [Example 161, 4-(4-(4-(((6-Methoxy-2-(2-methoxyimidazo[2,1-b][1,3,4]thiadiazol-6-yl)benzofuran-4-yl)oxy)methyl)thiazol-2-yl)tetrahydro-2H-pyran-4-yl)-N,N-dimethylbenzamide], the EC50 on PAR4 [1] came out at 0.69 nM. 27 nM corresponded to half-maximal inhibition against PAR4 [2] (IC50).
For the compound `COc1cc(OCc2csc(-c3ccccc3)n2)c2cc(-c3cn4nc([C@H](C)F)sc4n3)oc2c1` [Example 192, (S)-2-(1-Fluoroethyl)-6-(6-methoxy-4-((2-phenylthiazol-4-yl)methoxy)benzofuran-2-yl)imidazo[2,1-b][1,3,4]thiadiazole], on PAR4 [1], the EC50 was found to be 1.9 nM. The IC50 against PAR4 [2] came to 28 nM.
For `CC(F)(F)c1nn2cc(-c3cc4c(OCc5csc(-c6ccccc6)n5)nccc4o3)nc2s1` [Example 202, 2-(2-(1,1-Difluoroethyl)imidazo[2,1-b][1,3,4]thiadiazol-6-yl)-4-((2-phenylthiazol-4-yl)methoxy)furo[3,2-c]pyridine] the same measures were 43 nM and more than 3000 nM.
For `COc1cc(OCc2csc(Br)n2)c2cc(-c3cn4nc(C)ccc4n3)oc2c1` [Example 205, 2-Bromo-4-(((6-methoxy-2-(6-methylimidazo[1,2-b]pyridazin-2-yl)benzofuran-4-yl)oxy)methyl)thiazole] the same measures were 3.5 nM and 2380 nM.
For `COc1cc(OCc2csc(-c3ccc(Cl)cc3)n2)c2cc(-c3cn4nc(C)ccc4n3)oc2c1` [Example 209, 2-(4-Chlorophenyl)-4-(((6-methoxy-2-(6-methylimidazo[1,2-b]pyridazin-2-yl)benzofuran-4-yl)oxy)methyl)thiazole] the same measures were 1.2 nM and 23 nM.
As for `COc1cc(OCc2csc(-c3ccc4c(c3)OCO4)n2)c2cc(-c3cn4nc(C)ccc4n3)oc2c1` [Example 219], the EC50 on PAR4 [1] worked out at 1 nM. On PAR4 [2], this compound had an IC50 of 25 nM.
The like results for `COc1cc(OCc2csc(N3CCN(CCO)CC3)n2)c2cc(-c3cn4nc(C)ccc4n3)oc2c1` [Example 243] were, in that order, 32 nM and more than 3000 nM.
For `COc1cc(OCc2csc(NCCN3CCOCC3)n2)c2cc(-c3cn4nc(C)ccc4n3)oc2c1` [Example 244] the same measures were 909 nM and more than 3000 nM.
On to `COc1cc(OCc2csc(NCc3cccnc3)n2)c2cc(-c3cn4nc(C)ccc4n3)oc2c1` [Example 245], for which the EC50 on PAR4 [1] amounted to 5.5 nM. The same compound showed an IC50 on PAR4 [2] of 3130 nM.
The like results for `COc1cc(OCc2csc(N(C)CCO)n2)c2cc(-c3cn4nc(C)ccc4n3)oc2c1` [Example 249] were, in that order, 15 nM and more than 3000 nM.
As to `COc1cc(OCc2csc(NCCCN3CCCC3=O)n2)c2cc(-c3cn4nc(C)ccc4n3)oc2c1` [Example 254], the EC50 at PAR4 [1] was 19 nM. For the same compound, the IC50 against PAR4 [2] was more than 3000 nM.
For `COc1cc(OCc2csc(NCC3CCCO3)n2)c2cc(-c3cn4nc(C)ccc4n3)oc2c1` (stereo not drawn) [Example 256] the same measures were 7.8 nM and more than 3000 nM.
As to `COc1cc(OCc2csc(N3CCC3)n2)c2cc(-c3cn4nc(C)ccc4n3)oc2c1` [Example 257], the EC50 on PAR4 [1] was 7.5 nM. Also, the IC50 against PAR4 [2] was more than 3000 nM.
For `COc1cc(OCc2csc(Nc3ccc4[nH]ccc4c3)n2)c2cc(-c3cn4nc(C)ccc4n3)oc2c1` [Example 261] the same measures were 39 nM and more than 3000 nM.
The like results for `COc1cc(OCc2csc(Nc3cc(C)cc(C)n3)n2)c2cc(-c3cn4nc(C)ccc4n3)oc2c1` [Example 264] were, in that order, 207 nM and more than 3000 nM.
For `COc1cc(OCc2csc(Nc3cc(F)ccc3F)n2)c2cc(-c3cn4nc(C)ccc4n3)oc2c1` [Example 265] the same measures were 48 nM and more than 3000 nM.
For the compound `COc1cc(OCc2csc(Nc3cc(C)ccc3F)n2)c2cc(-c3cn4nc(C)ccc4n3)oc2c1` [Example 266], at PAR4 [1], the EC50 is 16 nM. For the same compound, the concentration for half-maximal inhibition (IC50) against PAR4 [2] is more than 3000 nM.
As to `COc1cc(OCc2csc(N3CCN(c4cccc(Cl)c4)CC3)n2)c2cc(-c3cn4nc(C)ccc4n3)oc2c1` [Example 268], the EC50 at PAR4 [1] was determined as 1.7 nM. At PAR4 [2], this compound had an IC50 of 2360 nM.
With `COc1cc(OCc2csc(N3CCC(N4CCOCC4)CC3)n2)c2cc(-c3cn4nc(C)ccc4n3)oc2c1` [Example 273], on PAR4 [1], the EC50 is 53 nM. Further, on PAR4 [2], the IC50 was more than 3000 nM.
For `COc1cc(OCc2csc(N3CCC[C@@H]3C)n2)c2cc(-c3cn4nc(C)ccc4n3)oc2c1` [Example 274] the same measures were 3.4 nM and more than 3000 nM.
For `COc1cc(OCc2csc(N3CCC[C@H]3C)n2)c2cc(-c3cn4nc(C)ccc4n3)oc2c1` [Example 275] the same measures were 4.2 nM and 2630 nM.
On to `COc1cc(OCc2csc(N3CCN(C)C(C)C3)n2)c2cc(-c3cn4nc(C)ccc4n3)oc2c1` (stereo not drawn) [Example 276], for which the EC50 at PAR4 [1] amounted to 24 nM. At PAR4 [2], the IC50 was more than 3000 nM.
With `COc1cc(OCc2csc(N(C)C)n2)c2cc(-c3cn4nc(C)ccc4n3)oc2c1` [Example 279], on PAR4 [1], the EC50 turned out to be 7.3 nM. The compound also displayed an IC50 on PAR4 [2] of more than 3000 nM.
Consider `COc1cc(OCc2csc(Nc3ccc4scnc4c3)n2)c2cc(-c3cn4nc(C)ccc4n3)oc2c1` [Example 281], for which, on PAR4 [1], the EC50 was found to be 0.6 nM. This compound yielded an IC50 against PAR4 [2] of more than 3000 nM.
For `COc1cc(OCc2csc(Nc3ccc(F)c(C)n3)n2)c2cc(-c3cn4nc(C)ccc4n3)oc2c1` [Example 282] the same measures were 3480 nM and more than 3000 nM.
The like results for `COc1cc(OCc2csc(N3CCN(c4ccc(C)cn4)CC3)n2)c2cc(-c3cn4nc(C)ccc4n3)oc2c1` [Example 285] were, in that order, 2.9 nM and 2340 nM.
In the case of `COc1cc(OCc2csc(-c3ccc(C(=O)NCC(F)(F)F)cc3)n2)c2cc(-c3cn4nc(OC)sc4n3)oc2c1` [Example 305], the concentration for a half-maximal effect (EC50) on PAR4 [1] is 1 nM. The compound also returned an IC50 on PAR4 [2] of 2 nM.
For `COc1cc(OCc2csc(-c3ccc(C(=O)N(C)CCC#N)cc3)n2)c2cc(-c3cn4nc(OC)sc4n3)oc2c1` [Example 311] the same measures were 0.65 nM and 2 nM.
Turning to `CCOC(=O)N[C@@H]1CC[C@@H]2[C@@H](C1)C[C@H]1C(=O)O[C@H](C)[C@H]1[C@H]2/C=C/c1ccc(-c2cccc(F)c2)cn1` [vorapaxar], on PAR1, the cardiovascular events entry was “did not significantly reduce cardiovascular events” and the “risk of major bleeding” value was “significantly increased the risk of major bleeding”.

The record behind these values is patent US9688695B2, “Imidazothiadiazole and imidazopyrazine derivatives as protease activated receptor 4 (PAR4) inhibitors for treating platelet aggregation” (BRISTOL-MYERS SQUIBB COMPANY, priority 2012, dated 2017).
